The structures appear in SMILES notation. A value given as a limit tells only on which side of the number the result lay.

The target in the first experiment is T1, human Y5 receptor (Homo sapiens, UniProt Q15761).
T1 construct: expressed in transfected cells; host or cells: mouse fibroblast LM(tk-) cells, e.g. L-hY5-7 (ATCC CRL-11995)
T1 sequence (Q15761 1-445): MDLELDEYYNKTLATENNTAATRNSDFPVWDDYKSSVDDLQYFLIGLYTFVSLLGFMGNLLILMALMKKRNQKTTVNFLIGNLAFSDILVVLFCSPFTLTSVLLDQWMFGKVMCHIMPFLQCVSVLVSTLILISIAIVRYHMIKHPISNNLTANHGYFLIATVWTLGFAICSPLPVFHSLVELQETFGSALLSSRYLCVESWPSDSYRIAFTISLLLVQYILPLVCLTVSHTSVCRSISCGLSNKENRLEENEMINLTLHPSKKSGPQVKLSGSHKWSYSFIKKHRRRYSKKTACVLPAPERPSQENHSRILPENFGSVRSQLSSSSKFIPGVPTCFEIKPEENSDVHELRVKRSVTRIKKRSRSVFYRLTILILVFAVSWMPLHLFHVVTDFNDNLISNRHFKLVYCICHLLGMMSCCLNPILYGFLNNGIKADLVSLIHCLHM
Put plainly: Radioligand binding to membranes, cloned human Y5 receptor. Particulars: Table 1; read-out: Ki (nM) hNPY-5.
Protocol: Binding of the compounds of the present invention to human Y1, Y2, Y4, and Y5 receptors was evaluated using stably transfected 293 or LM(tk-) cells as described above.
Membranes were harvested from COS-7 cells 48 hours after transient transfection. Adherent cells were washed twice in ice-cold phosphate buffered saline (138 mM NaCl, 8.1 mM Na2HPO4, 2.5 mM KCl, 1.2 mM KH2PO4, 0.9 mM CaCl2, 0.5 mM MgCl2, pH 7.4) and lysed by sonication in ice-cold sonication buffer (20 mM Tris-HCl, 5 mM EDTA, pH 7.7). Large particles and debris were cleared by low speed centrifugation (200×g, 5 min, 4° C.). Membranes were collected from the supernatant fraction by centrifugation (32,000×g, 18 min, 4° C.), washed with ice-cold hypotonic buffer, and collected again by centrifugation (32,000×g, 18 min, 4° C.). The final membrane pellet was resuspended by sonication into a small volume of ice-cold binding buffer (˜1 ml for every 5 plates: 10 mM NaCl, 20 mM HEPES, 0.22 mM KH2PO4, 1.26 mM CaCl2, 0.81 mM MgSO4, pH 7.4). Protein concentration was measured by the Bradford method (Bradford, 1976) using Bio-Rad Reagent, with bovine serum albumin as a standard. Membranes were held on ice for up to one hour and used fresh, or flash-frozen and stored in liquid nitrogen.
Membranes were prepared similarly from 293, LM(tk-), and NIH-3T3 cells.
Membrane suspensions were diluted in binding buffer supplemented with 0.1% bovine serum albumin to yield an optimal membrane protein concentration so that ^125I-PYY (or alternative radioligand such as ^125I-NPY, ^125I-NYY3-36, or ^125I-[Leu^31Pro^34]PYY) bound by membranes in the assay was less than 10% of ^125I-PYY (or alternative radioligand) delivered to the sample (100,000 dpm/sample=0.08 nM for competition binding assays). ^125I-PYY (or alternative radioligand) and peptide competitors were also diluted to desired concentrations in supplemented binding buffer. Individual samples were then prepared in 96-well polypropylene microtiter plates by mixing ^125I-PYY (25 μL) (or alternative radioligand), competing peptides or supplemented binding buffer (25 μL), and finally, membrane suspensions (200 μL). Samples were incubated in a 30° C. water bath with constant shaking for 120 min. Incubations were terminated by filtration over Whatman GF/C filters (pre-coated with 1% polyethyleneimine and air-dried before use), followed by washing with 5 mL of ice-cold binding buffer. Filter-trapped membranes were impregnated with MeltiLex solid scintillant (Wallac, Turku, Finland) and counted for ^125I in a Wallac Beta-Plate Reader. Alternatively, incubations were carried out in GF/C filter plates (pre-coated with 1% polyethyleneimine and air-dried before use), followed by vacuum filtration and three washes of 300 μL of ice-cold binding buffer. 50 μL of UltimaGold (Packard) scintillant were added and counted for ^125I, in a Wallac MicroBeta Trilux. Non-specific binding was defined by 300 nM human NPY for all receptors except the Y4 subtypes; 100 nM human PP was used for the human Y4 and 100 nM rat PP for the rat Y4.
In the case of `CC(C)Nc1nc(NCCN(C)C)nc(NCC2CCC(CNS(=O)(=O)c3cccc4ccccc34)CC2)n1` (centres unmarked) [Example 14, N1-{[4-({[4-{[2-(dimethylamino)ethyl]amino}-6-(isopropylamino)-1,3,5-triazin-2-yl]amino}methyl)cyclohexyl]methyl}-1-naphthalenesulfonamide], the Ki (commonly a measure of affinity in units of concentration, obtained from inhibition or displacement) was 194 nM.
As to `CC(C)Nc1nc(NCC2CCC(CNS(=O)(=O)c3cccc4ccccc34)CC2)nc(N2CCCCC2)n1` (centres unmarked) [Example 22, N1-{[4-({[4-(isopropylamino)-6-piperidino-1,3,5-triazin-2-yl]amino}methyl)cyclohexyl]methyl}-1-naphthalenesulfonamide], the Ki worked out at 38 nM.
On to `CCN(CC)c1nc(NCC2CCC(CNS(=O)(=O)c3cccc4ccccc34)CC2)nc(NC(C)C)n1` (centres unmarked) [Example 19, N1-[4-([4-(diethylamino)-6-(isopropylamino)-1,3,5-triazin-2-yl]aminomethyl)cyclohexyl]methyl-1-naphthalenesulfonamide], for which the inhibition constant (Ki) was determined as 53 nM.
`COc1ccc(CCNc2nc(NCC3CCC(CNS(=O)(=O)c4cccc5ccccc45)CC3)nc(NC(C)C)n2)cc1` (centres unmarked) [Example 16, N1-({4-[({4-(isopropylamino)-6-[(4-methoxyphenethyl)amino]-1,3,5-triazin-2-yl}amino)methyl]cyclohexyl}methyl)-1-naphthalenesulfonamide]: the Ki stood at 313 nM.
Turning to `CC(C)Nc1nc(NCC2CCC(CNS(=O)(=O)c3cccc4ccccc34)CC2)nc(N2CCCCC2C)n1` (centres unmarked) [Example 23, N1-[4-([4-(isopropylamino)-6-(2-methylpiperidino)-1,3,5-triazin-2-yl]aminomethyl)cyclohexyl]methyl-1-naphthalenesulfonamide], the Ki is 68 nM.
Turning to `CC(C)Nc1nc(NCC2CCC(CNS(=O)(=O)c3cccc4ccccc34)CC2)nc(N2CCOCC2)n1` (centres unmarked) [Example 24, N1-[4-([4-(isopropylamino)-6-morpholino-1,3,5-triazin-2-yl]aminomethyl)cyclohexyl]methyl-1-naphthalenesulfonamide], the inhibition constant (Ki) was found to be 40 nM.
For `CC(C)Nc1nc(NCC2CCC(CNS(=O)(=O)c3cccc4ccccc34)CC2)nc(N2CCCC2)n1` (centres unmarked) [Example 20, N1-[4-([4-(isopropylamino)-6-tetrahydro-1H-1-pyrrolyl-1,3,5-triazin-2-yl]aminomethyl)cyclohexyl]methyl-1-naphthalenesulfonamide], the Ki came out at 19 nM.
For `CC(C)Nc1nc(NCCCn2ccnc2)nc(NCC2CCC(CNS(=O)(=O)c3cccc4ccccc34)CC2)n1` (centres unmarked) [Example 15, N1-[4-([4-[3-(1H-1-imidazolyl)propyl]amino-6-(isopropylamino)-1,3,5-triazin-2-yl]aminomethyl)cyclohexyl]methyl-1-naphthalenesulfonamide], the Ki came to 83 nM.
As for `CC(=O)N1CCN(c2nc(NCC3CCC(CNS(=O)(=O)c4cccc5ccccc45)CC3)nc(NC(C)C)n2)CC1` (centres unmarked) [Example 27, N1-{[4-({[4-(4-acetylpiperazino)-6-(isopropylamino)-1,3,5-triazin-2-yl]amino}methyl)cyclohexyl]methyl}-1-naphthalenesulfonamide], the Ki amounted to 31 nM.

Still in this experiment, the particulars now being: Table 2; read-out: Ki (nM) hNPY-5.
As for `CCNc1nc(NCC)nc(NCC2CCC(CNS(=O)(=O)c3ccc(OC)cc3)CC2)n1` (centres unmarked) [Example 35, N1-[4-([4,6-di(ethylamino)-1,3,5-triazin-2-yl]aminomethyl)cyclohexyl]methyl-4-methoxy-1-benzenesulfonamide], the Ki was determined as 82 nM.

The experiment is the same for the next values; noted with them: Table 3; read-out: Ki (nM) hNPY-5.
Take `O=S(=O)(NCC1CCC(CNc2nc(NC3CC3)nc(N3CCCC3)n2)CC1)c1ccc(F)cc1` (centres unmarked) [Example 52, N1-[4-([4-(cyclopropylamino)-6-tetrahydro-1H-1-pyrrolyl-1,3,5-triazin-2-yl]aminomethyl)cyclohexyl]methyl-4-fluoro-1-benzenesulfonamide]: the Ki amounted to 101 nM.
With `CC(C)Nc1nc(NCC2CCC(CNS(=O)(=O)N3CCCCC3)CC2)nc(N2CCCCC2)n1` (centres unmarked) [Example 45, N1-[4-([4-(isopropylamino)-6-piperidino-1,3,5-triazin-2-yl]aminomethyl)cyclohexyl]methyl-1-piperidinesulfonamide], the Ki was 59 nM.
Regarding `CC(C)Nc1nc(NCC2CCC(CNS(=O)(=O)N3CCCC3)CC2)nc(N2CCCC2)n1` (centres unmarked) [Example 43, N1-[4-([4-(isopropylamino)-6-tetrahydro-1H-1-pyrrolyl-1,3,5-triazin-2-yl]aminomethyl)cyclohexyl]methyl-1-pyrrolidinesulfonamide], the Ki came out at 43 nM.
For `CC(C)Nc1nc(Cl)nc(NCC2CCC(CNS(=O)(=O)c3ccc(C(C)(C)C)cc3)CC2)n1` (centres unmarked) [Example 51, N1-[4-([4-chloro-6-(isopropylamino)-1,3,5-triazin-2-yl]aminomethyl)cyclohexyl]methyl-4-(tert-butyl)-1-benzenesulfonamide], the Ki was 3540 nM.

Staying with this experiment, now noted: Table 4; read-out: Ki (nM) hNPY-5.
As to `CCNc1nc(NCC)nc(NCCCn2ccnc2)n1` [Example 57, N2,N4-diethyl-N6-[3-(1H-1-imidazolyl)propyl]-1,3,5-triazine-2,4,6-triamine], the Ki is more than 100000 nM.

The same experiment, now with this note: Table 5; read-out: Ki, nM hNPY-5.
Consider `COc1ccc(C)cc1S(=O)(=O)NCCCCCNc1nc(-c2cccs2)cs1` [Example 92, N1-(5-{[4-(2-Thienyl)-1,3-thiazol-2-yl]amino}pentyl)-2-methoxy-5-methyl-1-benzenesulfonamide], for which the Ki worked out at 7.9 nM.
Same read-out and setting: in the case of `COc1ccc(C)cc1S(=O)(=O)N[C@H]1CC[C@H](CNc2nc(-c3ccncc3)cs2)CC1` [Example 87, trans-2-(4-(2-Methoxy-5-methylphenyl)sulfonylamino)-cyclohexylmethylamino-4-(4-pyridyl)thiazole dihydrogen chloride] it was 17 nM; in that of `O=S(=O)(Cc1ccccc1)NCCCCCNc1nc(-c2ccccn2)cs1` [Example 66, 2-(5-(Benzylsulfonylamino)pentylamino-4-(2-pyridyl)thiazole hydrogen chloride], 45 nM; in that of `COc1ccc(C)cc1S(=O)(=O)NCCCCCNc1nc(-c2nc(C)sc2C)cs1` [Example 93, N1-(5-[4-(2,5-Dimethyl-1,3-thiazol-4-yl)-1,3-thiazol-2-yl]aminopentyl)-2-methoxy-5-methyl-1-benzenesulfonamide], 3.6 nM.

Still in this experiment, the particulars now being: Table 6; read-out: Ki, nM hNPY-5.
Take `COCCN(C=O)[C@H]1CC[C@H](CNc2nc3c(s2)CCSc2ccc(F)cc2-3)CC1` [Example 164, trans-N-(4-[(9-Fluoro-4,5-dihydrobenzo[2,3]thiepino-[4,5-d][1,3]thiazol-2-yl)amino]methylcyclohexyl)-N-(2-methoxyethyl)formamide]: the inhibition constant Ki is 13 nM.
On the same count and under the same terms, in the case of `COc1cccc(Br)c1S(=O)(=O)NCCCCCNc1nc2c(s1)CCSc1ccccc1-2` [Example 132, N1-[5-(4,5-Dihydrobenzo[2,3]thiepino[4,5-d][1,3]thiazol-2-ylamino)pentyl]-2-bromo-6-methoxy-1-benzenesulfonamide] it was 9.7 nM; in that of `O=S(=O)(NC[C@H]1CC[C@H](Nc2nc3c(s2)CCSc2ccccc2-3)CC1)c1ccc(F)cc1` [Example 155, N1-{[4-(4,5-Dihydrobenzo[2,3]thiepino[4,5-d][1,3]thiazol-2-ylamino)cyclohexyl]methyl}-4-fluoro-1-benzenesulfonamide], 9.1 nM.
Consider `O=S(=O)(NCCCCCCNc1nc2c(s1)CCSc1ccccc1-2)c1cccc(C(F)(F)F)c1` [Example 144, N1-[6-(4,5-dihydrobenzo[2,3]thiepino[4,5-d][1,3]thiazol-2-ylamino)hexyl]-3-(trifluoromethyl)-1-benzenesulfonamide], for which the Ki came to 22.4 nM.
On the same count and under the same terms, the result for `O=S(=O)(NCCCCCNc1nc2c(s1)CCSc1ccccc1-2)c1ccccc1F` [Example 128, N1-[5-(4,5-Dihydrobenzo[2,3]thiepino[4,5-d][1,3]thiazol-2-ylamino)pentyl]-2-fluoro-1-benzenesulfonamide] reads 3.7 nM; that for `O=S(=O)(NC[C@H]1CC[C@H](Nc2nc3c(s2)CCSc2ccccc2-3)CC1)c1cccs1` [Example 108, N2-{[4-(4,5-Dihydrobenzo[2,3]thiepino[4,5-d][1,3]thiazol-2-ylamino)cyclohexyl]methyl}-2-thiophenesulfonamide], 5.1 nM; that for `O=S(=O)(NCCCCCCNc1nc2c(s1)CCSc1ccccc1-2)c1ccc(-c2ccon2)s1` [Example 129, N2-[6-(4,5-Dihydrobenzo[2,3]thiepino[4,5-d][1,3]thiazol-2-ylamino)hexyl]-5-(3-isoxazolyl)-2-thiophenesulfonamide], 29 nM.
Consider `COc1ccc(C)cc1S(=O)(=O)NCCCCCCNc1nc2c(s1)CCSc1ccccc1-2` [Example 113, N1-[6-(4,5-Dihydrobenzo[2,3]thiepino[4,5-d][1,3]thiazol-2-ylamino)hexyl]-2-methoxy-5-methyl-1-benzenesulfonamide], for which the Ki amounted to 5.4 nM.
Consider `O=S(=O)(NCCCCCNc1nc2c(s1)CCSc1ccccc1-2)c1cccc2ccccc12` [Example 127, N1-[5-(4,5-Dihydrobenzo[2,3]thiepino[4,5-d][1,3]thiazol-2-ylamino)pentyl]-1-naphthalenesulfonamide], for which the Ki amounted to 17.2 nM.
As for `Cc1cccc(F)c1S(=O)(=O)NCCCCCNc1nc2c(s1)CCSc1ccccc1-2` [Example 134, N1-[5-(4,5-Dihydrobenzo[2,3]thiepino[4,5-d][1,3]thiazol-2-ylamino)pentyl]-2-fluoro-6-methyl-1-benzenesulfonamide], the Ki was 8.3 nM.

(Values after US7189720B2 (H. Lundbeck A/S, priority 1999, dated 2007).)
